In PubChem BioAssay AID192 (DTP/NCI, 2004):
Values joined by “and” are separate entries in the source; they are usually repeats but may differ in a detail not shown here. Equal entries are not always repeated. Inconclusive results and toxic doses are left out. Rule for the calls: active = survival T/C of 150% or more; inactive = T/C below 125% in these data.

Test system: BDF1 mice, B16 melanoma ip, median survival T/C
Assay: NCI In Vivo Anticancer Drug Screen. Data for tumor model B16 Melanoma (intraperitoneal) in B6D2F1 (BDF1) mice
Details: endpoint: median survival time, higher = longer survival
Outline: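 Values are ratios of treated (T) to vehicle-control (C) measurements of survival or tumor size in tumor-bearing mice.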

[1] = dose: 12.5 mg/kg/injection, schedule: Q01DX009 (ip), vehicle: saline with Tween-80
[2] = dose: 20.0 mg/kg/injection, schedule: Q01DX009 (ip), vehicle: Klucel (hydroxypropylcellulose) (HPC)
[3] = dose: 40.0 mg/kg/injection, schedule: Q01DX009 (ip), vehicle: Klucel (hydroxypropylcellulose) (HPC)
[4] = dose: 80.0 mg/kg/injection, schedule: Q01DX009 (ip), vehicle: Klucel (hydroxypropylcellulose) (HPC)
[5] = dose: 3.12 mg/kg/injection, schedule: Q01DX009 (ip), vehicle: saline
[6] = dose: 6.25 mg/kg/injection, schedule: Q01DX009 (ip), vehicle: saline
[7] = dose: 12.5 mg/kg/injection, schedule: Q01DX009 (ip), vehicle: saline
[8] = dose: 25.0 mg/kg/injection, schedule: Q01DX009 (ip), vehicle: saline
[9] = dose: 100.0 mg/kg/injection, schedule: Q01DX009 (ip), vehicle: saline with Tween-80
[10] = dose: 200.0 mg/kg/injection, schedule: Q01DX009 (ip), vehicle: saline with Tween-80
[11] = dose: 100.0 mg/kg/injection, schedule: Q01DX009 (ip), vehicle: Klucel (hydroxypropylcellulose) (HPC)

Measured: T/C

CN(C)c1nc(N(C)C)nc(N(C)C)n1
inactive: dose: 10.0 mg/kg/injection, schedule: Q01DX009 (ip), vehicle: Klucel (hydroxypropylcellulose) (HPC) 108 % of control | [1] 99 % of control and 106 % of control and 107 % of control | [2] 94 % of control | dose: 20.0 mg/kg/injection, schedule: Q01DX009 (ip), vehicle: saline with Tween-80 88 % of control and 99 % of control | dose: 20.0 mg/kg/injection, schedule: Q02DX009 (ip), vehicle: saline with Tween-80 103 % of control and 107 % of control | dose: 25.0 mg/kg/injection, schedule: Q02DX009 (ip), vehicle: Klucel (hydroxypropylcellulose) (HPC) 97 % of control | [3] 100 % of control | dose: 40.0 mg/kg/injection, schedule: Q01DX009 (ip), vehicle: saline with Tween-80 93 % of control and 97 % of control | dose: 40.0 mg/kg/injection, schedule: Q02DX009 (ip), vehicle: saline with Tween-80 103 % of control and 112 % of control | dose: 50.0 mg/kg/injection, schedule: Q02DX009 (ip), vehicle: Klucel (hydroxypropylcellulose) (HPC) 96 % of control | [4] 100 % of control | dose: 80.0 mg/kg/injection, schedule: Q01DX009 (ip), vehicle: saline with Tween-80 100 % of control and 102 % of control | dose: 80.0 mg/kg/injection, schedule: Q02DX009 (ip), vehicle: saline with Tween-80 104 % of control and 109 % of control | dose: 100.0 mg/kg/injection, schedule: Q02DX009 (ip), vehicle: Klucel (hydroxypropylcellulose) (HPC) 101 % of control | dose: 160.0 mg/kg/injection, schedule: Q01DX009 (ip), vehicle: Klucel (hydroxypropylcellulose) (HPC) 91 % of control | dose: 160.0 mg/kg/injection, schedule: Q01DX009 (ip), vehicle: saline with Tween-80 111 % of control | dose: 160.0 mg/kg/injection, schedule: Q02DX009 (ip), vehicle: saline with Tween-80 107 % of control and 115 % of control | dose: 200.0 mg/kg/injection, schedule: Q02DX009 (ip), vehicle: Klucel (hydroxypropylcellulose) (HPC) 124 % of control

CNCCCC1c2ccccc2C=Cc2ccccc21
inactive: dose: 1.56 mg/kg/injection, schedule: Q01DX009 (ip), vehicle: saline 106 % of control | [5] 118 % of control | [6] 103 % of control | [7] 112 % of control | [8] 109 % of control

Cc1ncc(CO)c(CO)c1O
inactive: dose: 50.0 mg/kg/injection, schedule: Q01DX009 (ip), vehicle: saline 100 % of control | dose: 50.0 mg/kg/injection, schedule: Q08HX018 (ip), vehicle: saline 101 % of control | dose: 100.0 mg/kg/injection, schedule: Q01DX009 (ip), vehicle: saline 100 % of control | dose: 100.0 mg/kg/injection, schedule: Q08HX018 (ip), vehicle: saline 99 % of control | dose: 200.0 mg/kg/injection, schedule: Q01DX009 (ip), vehicle: saline 100 % of control | dose: 200.0 mg/kg/injection, schedule: Q08HX018 (ip), vehicle: saline 95 % of control | dose: 400.0 mg/kg/injection, schedule: Q01DX009 (ip), vehicle: saline 91 % of control | dose: 400.0 mg/kg/injection, schedule: Q08HX018 (ip), vehicle: saline 92 % of control | dose: 800.0 mg/kg/injection, schedule: Q01DX009 (ip), vehicle: saline 87 % of control | dose: 800.0 mg/kg/injection, schedule: Q08HX018 (ip), vehicle: saline 89 % of control

CC1=C(/C=C/C(C)=C/C=C/C(C)=C/C=O)C(C)(C)CCC1
inactive: dose: 16.0 mg/kg/injection, schedule: Q01DX005 (ip), vehicle: DMSO 94 % of control | dose: 32.0 mg/kg/injection, schedule: Q01DX005 (ip), vehicle: DMSO 88 % of control | dose: 64.0 mg/kg/injection, schedule: Q01DX005 (ip), vehicle: DMSO 89 % of control

CN1CN(C)CN(C)C1
inactive: [8] 118 % of control

COC1=C2CC(C)CC(OC)C(O)C(C)/C=C(\C)C(OC(N)=O)C(OC)/C=C\C=C(/C)C(=O)NC(=C(/C=N/N3CCCCC3)C1=O)C2=O (stereo not given)
inactive: dose: 12.5 mg/kg/injection, schedule: Q01DX005 (ip), vehicle: other 101 % of control | dose: 25.0 mg/kg/injection, schedule: Q01DX005 (ip), vehicle: other 98 % of control | dose: 50.0 mg/kg/injection, schedule: Q01DX005 (ip), vehicle: other 97 % of control | dose: 100.0 mg/kg/injection, schedule: Q01DX005 (ip), vehicle: other 88 % of control | dose: 200.0 mg/kg/injection, schedule: Q01DX005 (ip), vehicle: other 97 % of control

O=C(c1ccccc1)C1NC1c1ccccc1 (stereo not given)
inactive: [2] 100 % of control | [3] 97 % of control | [4] 94 % of control

C[n+]1cccc(NC(=O)c2ccc(NC(=O)c3ccc(C(=O)Nc4ccc(NC(=N)N)cc4)cc3)cc2)c1
inactive: dose: 0.9 mg/kg/injection, schedule: Q01DX009 (ip), vehicle: saline 102 % of control | dose: 1.3 mg/kg/injection, schedule: Q01DX009 (ip), vehicle: saline 94 % of control | dose: 2.0 mg/kg/injection, schedule: Q01DX009 (ip), vehicle: saline 116 % of control

OCCNCCN1CCN(CCCN2c3ccccc3Sc3ccc(C(F)(F)F)cc32)CC1
inactive: [5] 108 % of control | [6] 102 % of control | [7] 100 % of control | [8] 92 % of control

O=C1c2ccccc2C(Cl)=C(Cl)C1(Cl)Cl
inactive: dose: 12.5 mg/kg/injection, schedule: Q04DX003 (ip), vehicle: Klucel (hydroxypropylcellulose) (HPC) 87 % of control | dose: 25.0 mg/kg/injection, schedule: Q04DX003 (ip), vehicle: Klucel (hydroxypropylcellulose) (HPC) 92 % of control

O=C(c1ccccc1)c1cc([N+](=O)[O-])cc([N+](=O)[O-])c1
inactive: [9] 97 % of control | [10] 91 % of control | dose: 400.0 mg/kg/injection, schedule: Q01DX009 (ip), vehicle: saline with Tween-80 89 % of control

COC1=C(N=[N+]=[N-])C(=O)C(OC)=C(N=[N+]=[N-])C1=O
inactive: dose: 12.5 mg/kg/injection, schedule: Q01DX009 (ip), vehicle: Klucel (hydroxypropylcellulose) (HPC) 111 % of control | dose: 25.0 mg/kg/injection, schedule: Q01DX009 (ip), vehicle: Klucel (hydroxypropylcellulose) (HPC) 95 % of control | dose: 50.0 mg/kg/injection, schedule: Q01DX009 (ip), vehicle: Klucel (hydroxypropylcellulose) (HPC) 94 % of control | [11] 91 % of control

CC(CC(O)c1ccccc1)c1ccccc1 (stereo not given)
inactive: [11] 102 % of control | dose: 200.0 mg/kg/injection, schedule: Q01DX009 (ip), vehicle: Klucel (hydroxypropylcellulose) (HPC) 100 % of control | dose: 400.0 mg/kg/injection, schedule: Q01DX009 (ip), vehicle: Klucel (hydroxypropylcellulose) (HPC) 92 % of control

CC(=O)/C=C(\C)OC1CCCCC1
inactive: dose: 50.0 mg/kg/injection, schedule: Q01DX009 (ip), vehicle: saline with Tween-80 113 % of control | [9] 104 % of control | [10] 92 % of control

CC1(C)Oc2c(ccc(O)c2CN2CCOCC2)C2=C1CCCC2
inactive: dose: 64.0 mg/kg/injection, schedule: Q01DX009 (ip), vehicle: Klucel (hydroxypropylcellulose) (HPC) 96 % of control | dose: 128.0 mg/kg/injection, schedule: Q01DX009 (ip), vehicle: Klucel (hydroxypropylcellulose) (HPC) 96 % of control | dose: 256.0 mg/kg/injection, schedule: Q01DX009 (ip), vehicle: Klucel (hydroxypropylcellulose) (HPC) 101 % of control

CC(=O)O.[Pb]
inactive: dose: 1.56 mg/kg/injection, schedule: Q01DX009 (ip), vehicle: saline with Tween-80 95 % of control | dose: 3.13 mg/kg/injection, schedule: Q01DX009 (ip), vehicle: saline with Tween-80 95 % of control | dose: 6.25 mg/kg/injection, schedule: Q01DX009 (ip), vehicle: saline with Tween-80 95 % of control | [1] 88 % of control

ClCCCCCCBr
inactive: dose: 75.0 mg/kg/injection, schedule: Q01DX009 (ip), vehicle: Klucel (hydroxypropylcellulose) (HPC) 122 % of control | dose: 150.0 mg/kg/injection, schedule: Q01DX009 (ip), vehicle: Klucel (hydroxypropylcellulose) (HPC) 122 % of control | dose: 300.0 mg/kg/injection, schedule: Q01DX009 (ip), vehicle: Klucel (hydroxypropylcellulose) (HPC) 105 % of control

On1cnc(=S)c2[nH]cnc21
inactive: dose: 100.0 mg/kg/injection, schedule: Q01DX009 (ip), vehicle: saline sonified 106 % of control | dose: 200.0 mg/kg/injection, schedule: Q01DX009 (ip), vehicle: saline sonified 104 % of control | dose: 400.0 mg/kg/injection, schedule: Q01DX009 (ip), vehicle: saline sonified 90 % of control
